The text below walks through data of patent US10765114B2, “4-amino-6-(pyridyl and 2-substitutedphenyl)-picolinates and 6-amino-2-(pyridyl and 2-substitutedphenyl)-pyrimidine-4-carboxylates and their use as herbicides” (Dow AgroSciences LLC, priority 2013, dated 2020).

A value given as a limit tells only on which side of the number the result lay.

In assay [1] the test system is AMARE: redroot pigwseed (Amaranthus retroflexus). In words: Post-Emergent Test I. The class given is in vivo. The conditions noted are these: postemergence. The procedure: (§1) Post-Emergent Test I Seeds test species were obtained from commercial suppliers and planted into a 13 centimeter (cm) diameter-round pot containing soil-less media mix (Metro-Mix 360®, Sun Gro Horticulture). Postemergence treatments were planted 8-12 days prior to application and cultured in a greenhouse equipped with supplemental light sources to provide a 16 hour (h) photoperiod at 24-29° C. All pots were surface irrigated.
(§2) A weighted amount, determined by the highest rate to be tested, of each compound was dissolved in 1.3 mL acetone-dimethyl sulfoxide (DMSO; 97:3, volume per volume (v/v)) and diluted with 4.1 mL water-isopropanol-crop oil concentrate (78:20:2, v/v/v) containing 0.02% Triton X-155 to obtain concentrated stock solutions. Additional application rates were obtained by serial dilution of the high rate solution into a solution containing appropriate volume of 97:3 v/v mixture of acetone and DMSO and appropriate volume of an aqueous mixture of water, isopropyl alcohol, crop oil concentrate (78:20:2, v/v/v) containing 0.02% Triton X-155.
(§3) Formulated compounds were applied using a DeVilbiss® compressed air sprayer at 2-4 pounds per square inch (psi). Following treatment, pots were returned to the greenhouse for the duration of the experiment. All pots were sub-irrigated as need to provide optimum growing conditions. All pots were fertilized one time per week by subirrigating with Peters Peat-Lite Special® fertilizer (20-10-20).
(§4) All evaluations were made visually on a scale of 0 to 100 where 0 represents no activity and 100 represents complete plant death and presented as indicated in Table A. Visual assessments of plant injury were made based on growth reduction, discoloration, leaf deformity and necrosis

Assay [2] concerns AVEFA: wild oats (Avena fatua). In words: Post-Emergent Test I. Format: in vivo. The conditions noted are these: postemergence. The procedure: as §1, §2, §3, §4
Assay [3] relates to ECHSS (ECHCG: barnyardgrass (Echinochloa crus-galli)). In words: Post-Emergent Test I. The class given is in vivo. The conditions noted are these: postemergence. The procedure: as §1, §2, §3, §4
Assay [4] relates to HELAN: sunflower (Helianthus annuus). In words: Post-Emergent Test I. Format: in vivo. The conditions noted are these: postemergence. The procedure:
as §1, §2, §3, §4

For assay [5], the system named is SETFA: giant foxtail (Setaria faberi). In words: Post-Emergent Test I. The class given is in vivo. The conditions noted are these: postemergence. The procedure: as §1, §2, §3, §4
For assay [6], the system named is BROTE (downy brome). In words: Post-Emergent Test III (Wheat and Barley). Format: in vivo, Bromus tectorum. The conditions noted are these: for Visual Growth Reduction (%) 21 Days After Application, BROTE: postemergence. The procedure: (§5) Seeds of the desired test plant species were planted in Sun Gro MetroMix® 306 planting mixture, which typically has a pH of 6.0 to 6.8 and an organic matter content of about 30 percent, in plastic pots with a surface area of 103.2 square centimeters (cm^2). When required to ensure good germination and healthy plants, a fungicide treatment and/or other chemical or physical treatment was applied. The plants were grown for 7-36 days in a greenhouse with an approximate 14 h photoperiod which was maintained at about 18° C. during the day and 17° C. during the night. Nutrients and water were added on a regular basis and supplemental lighting was provided with overhead metal halide 1000-Watt lamps as necessary. The plants were employed for testing when they reached the second or third true leaf stage.
(§6) A weighed amount, determined by the highest rate to be tested, of each test compound was placed in a 25 mL glass vial and was dissolved in 4 mL of a 97:3 v/v mixture of acetone and DMSO to obtain concentrated stock solutions. […] The concentrated stock solutions obtained were diluted with 20 mL of an aqueous mixture containing acetone, water, isopropyl alcohol, DMSO, Agri-Dex crop oil concentrate, and X-77 surfactant in a 48:39:10:1.5:1.5:0.02 v/v ratio to obtain spray solutions containing the highest application rates. Additional application rates were obtained by serial dilution of 12 mL of the high rate solution into a solution containing 2 mL of 97:3 v/v mixture of acetone and DMSO and 10 mL of an aqueous mixture containing acetone, water, isopropyl alcohol, DMSO, Agri-Dex crop oil concentrate, and X-77 surfactant in a 48:39:10:1.5:1.5:0.02 v/v ratio to obtain ½×, ¼×, ⅛× and 1/16× rates of the high rate. Compound requirements are based upon a 12 mL application volume at a rate of 187 liters per hectare (L/ha). Formulated compounds were applied to the plant material with an overhead Mandel track sprayer equipped with 8002E nozzles calibrated to deliver 187 L/ha over an application area of 0.503 square meters at a spray height of 18 inches (43 cm) above the average plant canopy height. Control plants were sprayed in the same manner with the solvent blank.
(§7) The treated plants and control plants were placed in a greenhouse as described above and watered by subirrigation to prevent wash-off of the test compounds. After 21 dAYS, the condition of the test plants as compared with that of the untreated plants was determined visually and scored on a scale of 0 to 100 percent where 0 corresponds to no injury and 100 corresponds to complete kill and presented as indicated in Table A.
(§8) By applying the well-accepted probit analysis as described by J. Berkson in Journal of the American Statistical Society, 48, 565 (1953) and by D. Finney in “Probit Analysis” Cambridge University Press (1952), herbicidal injury of a specific compound at various rates can be used to calculate GR10, GR20, GR50, GR80 and GR90 values, which are defined as growth reduction factors that correspond to the effective dose of herbicide required to provide plant growth reduction (GR) of 10 percent, 20 percent, 50 percent, 80 percent and 90 percent, respectively. Probit analysis was applied to data collected from multiple dose rates of individual compounds utilizing the procedures explained in the following examples. The analysis of those dose rates is captured in the following tables.

Assay [7] relates to SINAR (wild mustard). In words: Post-Emergent Test III (Wheat and Barley). The class given is in vivo, Sinapis arvensis. The conditions noted are these: for Visual Growth Reduction (%) 21 Days After Application, SINAR: postemergence. The procedure:
as §5, §6, §7, §8

The mark [8] stands for this setting: effective dose for growth reduction of 50 percent, probit analysis.
Setting [9] is: effective dose for growth reduction of 80 percent, probit analysis.
The mark [10] stands for this setting: effective dose for growth reduction of 90 percent, probit analysis.

Consider `COC(=O)c1nc(-c2ccc(C(F)(F)F)nc2)cc(N)c1Cl` [Compound 4], for which the “Visual Growth Reduction (%) 14 Days After Application, AMARE” value in assay [1] (4 kg ai/ha) was “A (95-100)”. In addition, the “Visual Growth Reduction (%) 14 Days After Application, AVEFA” value in assay [2] (4 kg ai/ha) is “B (85-94)”. For the same molecule, in assay [3] (4 kg ai/ha), the “Visual Growth Reduction (%) 14 Days After Application, ECHSS” value is recorded as “C (75-84)”. In addition, the “Visual Growth Reduction (%) 14 Days After Application, HELAN” value in assay [4] (4 kg ai/ha) is on record as “A (95-100)”. For the same molecule, the “Visual Growth Reduction (%) After Application, SETFA” value in assay [5] (4 kg ai/ha) is given as “A (95-100)”.

Regarding `COC(=O)c1nc(-c2ccc(Cl)nc2F)cc(N)c1Cl` [Compound 17, methyl 4-amino-5,6′-dichloro-2′-fluoro-[2,3′-bipyridine]-6-carboxylate], the “Visual Growth Reduction (%) 14 Days After Application, AMARE” value in assay [1] (3.8 kg ai/ha) was “C (75-84)”. For the same molecule, the “Visual Growth Reduction (%) 14 Days After Application, AVEFA” value in assay [2] (3.8 kg ai/ha) is recorded as “F (30-44)”. In assay [3] (3.8 kg ai/ha), the “Visual Growth Reduction (%) 14 Days After Application, ECHSS” value was “F (30-44)”. Moreover, the “Visual Growth Reduction (%) 14 Days After Application, HELAN” value in assay [4] (3.8 kg ai/ha) is recorded as “A (95-100)”. Besides, in assay [5] (3.8 kg ai/ha), the “Visual Growth Reduction (%) After Application, SETFA” value is given as “B (85-94)”.

On to `COC(=O)c1nc(-c2ccc(Cl)c(F)c2C)cc(N)c1Cl` [Compound 73], for which the “Visual Growth Reduction (%) 21 Days After Application, BROTE” value in assay [6] (35 g ai/ha) is on record as “E (45-59)”; in assay [6] (70 g ai/ha), “D (60-74)”; in assay [6] (140 g ai/ha), “D (60-74)”. Further, the “GR50, BROTE” value in assay [6] (setting [8]) was determined as 59 g ai/ha. The “GR80, BROTE” value in assay [6] (setting [9]) was >140 g ai/ha. In addition, the “GR90, BROTE” value in assay [6] (setting [10]) is reported as >140 g ai/ha. Also, the “Visual Growth Reduction (%) 21 Days After Application, SINAR” value in assay [7] (35 g ai/ha), in assay [7] (70 g ai/ha) and in assay [7] (140 g ai/ha) was “A (95-100)” each time. Further, the “GR50, SINAR” value in assay [7] (setting [8]) came to 1 g ai/ha. The “GR80, SINAR” value in assay [7] (setting [9]) is 1 g ai/ha. The “GR90, SINAR” value in assay [7] (setting [10]) is 3 g ai/ha.
